Data from US20240252652A1, “PROTEINS HAVING UNNATURAL AMINO ACIDS AND METHODS OF USE” (The Regents of the University of California, priority 2021, published 2024).

How the values were obtained:
HEK293T cells = test: Cell viability assay (CellTiter-Blue); assay type: cell-based, human; conditions: 0-1 mM SFY, 24 h or 48 h
Description: Error bars represent s.e.m.; n=3 independent tests.
Cell viability assay. 2×10^4 cells/well of HEK293T cells were seeded in a 96-well plate. On the next day, the media were replaced with fresh DMEM media supplemented with 0, 0.0625, 0.125, 0.25, 0.5, or 1 mM of SFY. The SFY-treated and control cells were cultured for an additional 24-48 h at 37° C. and then analyzed with CellTiter-Blue R Cell Viability Assay following the manufacturer's instructions.

GST dimer = test: Cross-linking of GST-103SFY-107X in live mammalian cells; assay type: cell-based; conditions: HEK293T cells, Western blot
From the text: (§1) To determine which amino acid residues could react with SFY via proximity-enabled reactivity directly in cells, we coexpressed in E. coli the Z protein and an affibody (Afb) specifically binding it. Based on the crystal structure of Afb-Z complex, we introduced SFY at site 24 of the Z protein and various natural residues at site 7 of the affibody (FIG. 11D), placing the two residues in close proximity upon Afb-Z binding. (Wang et al. J. Am Chem. Soc. 140:4995-4999 (2018)). After expression of Afb(24SFY) and Z(7X) (X=target residue) for 6 h. cells were lysed and analyzed with Western blot under denatured conditions (FIG. 11E). Crosslinking bands corresponding to the adduct of Afb and Z were detected for target residue His. Tyr, and Lys, for both Mm-tRNA^Pyl/MmSFYRS and Ma-tRNA^Pyl/MaSFYRS. We then purified 6×His-tagged Z and Afb proteins from cells and analyzed with SDS-PAGE. Consistently, a protein band corresponding to the cross-linked Z with Afb was clearly observed for Afb-7Lys. Afb-7His, and Afb-7Tyr (FIG. 11E). We further tested if SFY could crosslink with these residues in mammalian cells. […] (Liu et al. J. Am Chem. 141:9458-9462 (2019)). We incorporated SFY at site 103 of GST and mutated residue 107 to various target residues. HEK293T cells expressing these GST mutants were lysed and Western blotted to detect covalent GST dimer formation (FIG. 11G). […]

Afb-Z complex = test: Cross-linking of MBP-Z24SFY and Afb4A-7X in live E. coli cells; assay type: cell-based; conditions: 6 h expression, Western blot
From the text: as §1

[1] = test system: nucleoside monophosphates (AMP, UMP, CMP, GMP); test: In vitro incubations of NMPs and SFY (MS detection of adducts); assay type: biochemical; conditions: 50 mM SFY, 50 mM NMP, 37° C., 16 hours
Description: In addition, to check if SFY could cross-link all four nucleotides, we incubated 50 mM SFY with 50 mM different nucleoside monophosphates (NMPs: AMP, UMP, CMP, or GMP) at 37° C. for 16 hours.
In vitro incubations of NMPs and SFY. 50 mM SFY (HCl salt) and 50 mM NMP was incubated in DI H2O. 50 mM NaOH was added to neutralize the HCl salt. The mixture was incubated at 37° C. for […]. Then the reaction mixture was diluted for 50 times in H2O/acetonitrile (50/50, v/v, with 0.1% trifluoracetic acid) and subjected to mass spectrum analysis using positive mode. Mass spectrum analysis was performed on SCIEX MDS, 3200 Q TRAP system.
The molecular weight (MW) of addict products between SFY and NMP was calculated following this equation: MW (adduct product)=MW (SFY)+MW (NMP)−MW (HF).

COc1ccc(C[C@H](N)C(=O)O)cc1S(=O)(=O)F [SFY, (S)-1-carboxy-2-(3-(fluorosulfonyl)-4-methoxyphenyl)ethan-1-aminium]
toxicity to HEK293T cells (HEK293T cells): did not observe obvious toxicity | target residues reacting (covalent GST dimer) (GST dimer): react with His. Tyr, and Lys | target residues giving crosslinking bands (adduct of Afb and Z) (Afb-Z complex): detected for target residue His. Tyr, and Lys | cross-linking adducts with NMPs [1]: adducts of SFY with all four NMPs were detected
